Columns and labels:
Test in all cases: Twenty-four hour biofilm growth (crystal violet)
Type in all cases: cell-based
Conditions in all cases: 24 hours, control = 1
Actinomyces naeslundii = system: Actinomyces naeslundii
Protocol: (§1) The increase in biofilm formation of the tested bacteria in response to selected glycosides (β-methyl-D-galactoside and α-methyl-D-galactoside) was investigated by setting up biofilm growth assays in a nutritionally rich medium (brain heart infusion broth (BHI), Oxoid), over 24 hours. Late exponential growth phase liquid cultures were prepared by transferring the respective bacterium from blood agar plates to BHI and overnight incubation at 37° C. in an anaerobic atmosphere for A. viscosus, V. parvula, P. gingivalis, P. intermedia, T. forsythia, A. naeslundii, and C. sputigena, and in a 5% CO2 environment for S. salivarius, S. sanguinis, S. mitis, A. actinomycetemcomitans, S. mutans, and S. gordonii. Overnight cultures were transferred to BHI and adjusted to a concentration of 1×10^7 CFU/ml by measuring the optical density at 600 nm (OD600) (BioRad SmartSpec 3000). For each strain, 200 μl of the bacterial suspension was added to a 96-well plate containing 20 μl of the respective glycosides. Final concentrations of the glycosides were set to 5, 10, 20 and 25 μmol/ml. […] Additionally, for each bacterium tested, a background control, to correct for background staining, was added. This background control contained the bacterium tested and 0.03 weight % chlorhexidine, as an antiseptic. Plates were incubated as previously described. After 24 hrs the supernatant was removed from the wells of the plates. The wells were washed twice with 1×100 μL PBS (phosphate buffered saline), fixed for 20 minutes with 96% vol. ethanol (96% vol. solution in water) and the biofilm retained at the bottom of the wells was stained with 1 weight % crystal violet (1 weight % solution in water). The bound dye was dissolved with 5% vol. acetic acid (5% vol. solution in water). Quantification of the stained biofilm was performed by measuring the absorbance at 630 nm using a Multiskan Ascent microplate reader (Thermo Scientific). […] The experiment was carried out on three different days (thus providing 3 biological replicas) and each day the experiment was carried out in quadruple (thus providing 4 technical replicas) for each combination of bacterium with glycoside and for each control. For each day and for each combination, the average (mean) of the values obtained (as detailed above) for the four technical replicas was calculated to provide a single value for each combination on each day. The values shown in Tables 7 to 8, below, are the average (mean) of the three single values obtained for each combination of bacterium with glycoside.

Actinomyces viscosus = system: Actinomyces viscosus
Protocol: as §1

[1] = system: Aggregatibacter actinomycetemcomitans
Protocol: as §1

Capnocytophaga sputigena = system: Capnocytophaga sputigena
Protocol: as §1

Porphyromonas gingivalis = system: Porphyromonas gingivalis
Protocol: as §1

Prevotella intermedia = system: Prevotella intermedia
Protocol: as §1

Streptococcus gordonii = system: Streptococcus gordonii
Protocol: as §1

Streptococcus mitis = system: Streptococcus mitis
Protocol: as §1

Streptococcus mutans = system: Streptococcus mutans
Protocol: as §1

Streptococcus salivarius = system: Streptococcus salivarius
Protocol: as §1

Streptococcus sanguinis = system: Streptococcus sanguinis
Protocol: as §1

Tannerella forsythia = system: Tannerella forsythia
Protocol: as §1

Veillonella parvula = system: Veillonella parvula
Protocol: as §1

## CO[C@H]1O[C@H](CO)[C@H](O)[C@H](O)[C@H]1O [α-methyl-D-galactoside]
Actinomyces naeslundii; 5 μmol/ml
  biofilm OD 630 nm divided by control (biofilm growth): 0.9655
Actinomyces naeslundii; 10 μmol/ml
  biofilm OD 630 nm divided by control (biofilm growth): 0.9764
Actinomyces naeslundii; 20 μmol/ml
  biofilm OD 630 nm divided by control (biofilm growth): 0.9692
Actinomyces naeslundii; 25 μmol/ml
  biofilm OD 630 nm divided by control (biofilm growth): 0.9789
Actinomyces viscosus; 5 μmol/ml
  biofilm OD 630 nm divided by control (biofilm growth): 0.7268
Actinomyces viscosus; 10 μmol/ml
  biofilm OD 630 nm divided by control (biofilm growth): 0.7293
Actinomyces viscosus; 20 μmol/ml
  biofilm OD 630 nm divided by control (biofilm growth): 0.7490
Actinomyces viscosus; 25 μmol/ml
  biofilm OD 630 nm divided by control (biofilm growth): 0.6777
[1]; 5 μmol/ml
  biofilm OD 630 nm divided by control (biofilm growth): 0.9911
[1]; 10 μmol/ml
  biofilm OD 630 nm divided by control (biofilm growth): 0.9943
[1]; 20 μmol/ml
  biofilm OD 630 nm divided by control (biofilm growth): 1.1846
[1]; 25 μmol/ml
  biofilm OD 630 nm divided by control (biofilm growth): 1.1720
Capnocytophaga sputigena; 5 μmol/ml
  biofilm OD 630 nm divided by control (biofilm growth): 0.9689
Capnocytophaga sputigena; 10 μmol/ml
  biofilm OD 630 nm divided by control (biofilm growth): 1.0025
Capnocytophaga sputigena; 20 μmol/ml
  biofilm OD 630 nm divided by control (biofilm growth): 1.1142
Capnocytophaga sputigena; 25 μmol/ml
  biofilm OD 630 nm divided by control (biofilm growth): 0.9669
Porphyromonas gingivalis; 5 μmol/ml
  biofilm OD 630 nm divided by control (biofilm growth): 0.9047
Porphyromonas gingivalis; 10 μmol/ml
  biofilm OD 630 nm divided by control (biofilm growth): 0.9772
Porphyromonas gingivalis; 20 μmol/ml
  biofilm OD 630 nm divided by control (biofilm growth): 0.9820
Porphyromonas gingivalis; 25 μmol/ml
  biofilm OD 630 nm divided by control (biofilm growth): 1.0029
Prevotella intermedia; 5 μmol/ml
  biofilm OD 630 nm divided by control (biofilm growth): 1.1518
Prevotella intermedia; 10 μmol/ml
  biofilm OD 630 nm divided by control (biofilm growth): 1.1589
Prevotella intermedia; 20 μmol/ml
  biofilm OD 630 nm divided by control (biofilm growth): 1.0758
Prevotella intermedia; 25 μmol/ml
  biofilm OD 630 nm divided by control (biofilm growth): 0.9774
Streptococcus gordonii; 5 μmol/ml
  biofilm OD 630 nm divided by control (biofilm growth): 0.6940
Streptococcus gordonii; 10 μmol/ml
  biofilm OD 630 nm divided by control (biofilm growth): 0.6458
Streptococcus gordonii; 20 μmol/ml
  biofilm OD 630 nm divided by control (biofilm growth): 0.6465
Streptococcus gordonii; 25 μmol/ml
  biofilm OD 630 nm divided by control (biofilm growth): 0.6859
Streptococcus mitis; 5 μmol/ml
  biofilm OD 630 nm divided by control (biofilm growth): 1.4898
Streptococcus mitis; 10 μmol/ml
  biofilm OD 630 nm divided by control (biofilm growth): 1.2441
Streptococcus mitis; 20 μmol/ml
  biofilm OD 630 nm divided by control (biofilm growth): 1.3917
Streptococcus mitis; 25 μmol/ml
  biofilm OD 630 nm divided by control (biofilm growth): 1.2800
Streptococcus mutans; 5 μmol/ml
  biofilm OD 630 nm divided by control (biofilm growth): 1.2046
Streptococcus mutans; 10 μmol/ml
  biofilm OD 630 nm divided by control (biofilm growth): 1.3284
Streptococcus mutans; 20 μmol/ml
  biofilm OD 630 nm divided by control (biofilm growth): 1.5452
Streptococcus mutans; 25 μmol/ml
  biofilm OD 630 nm divided by control (biofilm growth): 1.7240
Streptococcus salivarius; 5 μmol/ml
  biofilm OD 630 nm divided by control (biofilm growth): 0.9165
Streptococcus salivarius; 10 μmol/ml
  biofilm OD 630 nm divided by control (biofilm growth): 0.9115
Streptococcus salivarius; 20 μmol/ml
  biofilm OD 630 nm divided by control (biofilm growth): 1.1202
Streptococcus salivarius; 25 μmol/ml
  biofilm OD 630 nm divided by control (biofilm growth): 0.9258
Streptococcus sanguinis; 5 μmol/ml
  biofilm OD 630 nm divided by control (biofilm growth): 2.6029
Streptococcus sanguinis; 10 μmol/ml
  biofilm OD 630 nm divided by control (biofilm growth): 2.4812
Streptococcus sanguinis; 20 μmol/ml
  biofilm OD 630 nm divided by control (biofilm growth): 2.1593
Streptococcus sanguinis; 25 μmol/ml
  biofilm OD 630 nm divided by control (biofilm growth): 2.4656
Tannerella forsythia; 5 μmol/ml
  biofilm OD 630 nm divided by control (biofilm growth): 0.7627
Tannerella forsythia; 10 μmol/ml
  biofilm OD 630 nm divided by control (biofilm growth): 1.0506
Tannerella forsythia; 20 μmol/ml
  biofilm OD 630 nm divided by control (biofilm growth): 0.8302
Tannerella forsythia; 25 μmol/ml
  biofilm OD 630 nm divided by control (biofilm growth): 1.0929
Veillonella parvula; 5 μmol/ml
  biofilm OD 630 nm divided by control (biofilm growth): 1.0323
Veillonella parvula; 10 μmol/ml
  biofilm OD 630 nm divided by control (biofilm growth): 1.0615
Veillonella parvula; 20 μmol/ml
  biofilm OD 630 nm divided by control (biofilm growth): 1.0577
Veillonella parvula; 25 μmol/ml
  biofilm OD 630 nm divided by control (biofilm growth): 1.1040

## CO[C@@H]1O[C@H](CO)[C@H](O)[C@H](O)[C@H]1O [β-methyl-D-galactoside]
Actinomyces naeslundii; 5 μmol/ml
  biofilm OD 630 nm divided by control (biofilm growth): 0.9907
Actinomyces naeslundii; 10 μmol/ml
  biofilm OD 630 nm divided by control (biofilm growth): 0.9316
Actinomyces naeslundii; 20 μmol/ml
  biofilm OD 630 nm divided by control (biofilm growth): 0.9697
Actinomyces naeslundii; 25 μmol/ml
  biofilm OD 630 nm divided by control (biofilm growth): 0.9727
Actinomyces viscosus; 5 μmol/ml
  biofilm OD 630 nm divided by control (biofilm growth): 0.5917
Actinomyces viscosus; 10 μmol/ml
  biofilm OD 630 nm divided by control (biofilm growth): 0.5767
Actinomyces viscosus; 20 μmol/ml
  biofilm OD 630 nm divided by control (biofilm growth): 0.6104
Actinomyces viscosus; 25 μmol/ml
  biofilm OD 630 nm divided by control (biofilm growth): 0.6322
[1]; 5 μmol/ml
  biofilm OD 630 nm divided by control (biofilm growth): 1.1108
[1]; 10 μmol/ml
  biofilm OD 630 nm divided by control (biofilm growth): 1.0188
[1]; 20 μmol/ml
  biofilm OD 630 nm divided by control (biofilm growth): 1.0927
[1]; 25 μmol/ml
  biofilm OD 630 nm divided by control (biofilm growth): 1.0212
Capnocytophaga sputigena; 5 μmol/ml
  biofilm OD 630 nm divided by control (biofilm growth): 0.7253
Capnocytophaga sputigena; 10 μmol/ml
  biofilm OD 630 nm divided by control (biofilm growth): 0.8100
Capnocytophaga sputigena; 20 μmol/ml
  biofilm OD 630 nm divided by control (biofilm growth): 0.8487
Capnocytophaga sputigena; 25 μmol/ml
  biofilm OD 630 nm divided by control (biofilm growth): 0.9428
Porphyromonas gingivalis; 5 μmol/ml
  biofilm OD 630 nm divided by control (biofilm growth): 0.9407
Porphyromonas gingivalis; 10 μmol/ml
  biofilm OD 630 nm divided by control (biofilm growth): 0.9326
Porphyromonas gingivalis; 20 μmol/ml
  biofilm OD 630 nm divided by control (biofilm growth): 0.9049
Porphyromonas gingivalis; 25 μmol/ml
  biofilm OD 630 nm divided by control (biofilm growth): 0.9163
Prevotella intermedia; 5 μmol/ml
  biofilm OD 630 nm divided by control (biofilm growth): 1.1201
Prevotella intermedia; 10 μmol/ml
  biofilm OD 630 nm divided by control (biofilm growth): 1.0925
Prevotella intermedia; 20 μmol/ml
  biofilm OD 630 nm divided by control (biofilm growth): 1.1229
Prevotella intermedia; 25 μmol/ml
  biofilm OD 630 nm divided by control (biofilm growth): 1.1007
Streptococcus gordonii; 5 μmol/ml
  biofilm OD 630 nm divided by control (biofilm growth): 0.7601
Streptococcus gordonii; 10 μmol/ml
  biofilm OD 630 nm divided by control (biofilm growth): 0.6695
Streptococcus gordonii; 20 μmol/ml
  biofilm OD 630 nm divided by control (biofilm growth): 0.6763
Streptococcus gordonii; 25 μmol/ml
  biofilm OD 630 nm divided by control (biofilm growth): 0.6429
Streptococcus mitis; 5 μmol/ml
  biofilm OD 630 nm divided by control (biofilm growth): 1.3127
Streptococcus mitis; 10 μmol/ml
  biofilm OD 630 nm divided by control (biofilm growth): 1.1242
Streptococcus mitis; 20 μmol/ml
  biofilm OD 630 nm divided by control (biofilm growth): 1.1524
Streptococcus mitis; 25 μmol/ml
  biofilm OD 630 nm divided by control (biofilm growth): 1.1692
Streptococcus mutans; 5 μmol/ml
  biofilm OD 630 nm divided by control (biofilm growth): 1.3512
Streptococcus mutans; 10 μmol/ml
  biofilm OD 630 nm divided by control (biofilm growth): 1.0007
Streptococcus mutans; 20 μmol/ml
  biofilm OD 630 nm divided by control (biofilm growth): 1.1097
Streptococcus mutans; 25 μmol/ml
  biofilm OD 630 nm divided by control (biofilm growth): 1.2791
Streptococcus salivarius; 5 μmol/ml
  biofilm OD 630 nm divided by control (biofilm growth): 3.1530
Streptococcus salivarius; 10 μmol/ml
  biofilm OD 630 nm divided by control (biofilm growth): 5.6484
Streptococcus salivarius; 20 μmol/ml
  biofilm OD 630 nm divided by control (biofilm growth): 18.9267
Streptococcus salivarius; 25 μmol/ml
  biofilm OD 630 nm divided by control (biofilm growth): 20.1333
Streptococcus sanguinis; 5 μmol/ml
  biofilm OD 630 nm divided by control (biofilm growth): 1.8586
Streptococcus sanguinis; 10 μmol/ml
  biofilm OD 630 nm divided by control (biofilm growth): 2.3853
Streptococcus sanguinis; 20 μmol/ml
  biofilm OD 630 nm divided by control (biofilm growth): 2.3700
Streptococcus sanguinis; 25 μmol/ml
  biofilm OD 630 nm divided by control (biofilm growth): 2.4211
Tannerella forsythia; 5 μmol/ml
  biofilm OD 630 nm divided by control (biofilm growth): 0.7494
Tannerella forsythia; 10 μmol/ml
  biofilm OD 630 nm divided by control (biofilm growth): 0.6979
Tannerella forsythia; 20 μmol/ml
  biofilm OD 630 nm divided by control (biofilm growth): 0.9049
Tannerella forsythia; 25 μmol/ml
  biofilm OD 630 nm divided by control (biofilm growth): 0.8051
Veillonella parvula; 5 μmol/ml
  biofilm OD 630 nm divided by control (biofilm growth): 1.0106
Veillonella parvula; 10 μmol/ml
  biofilm OD 630 nm divided by control (biofilm growth): 1.0266
Veillonella parvula; 20 μmol/ml
  biofilm OD 630 nm divided by control (biofilm growth): 1.0191
Veillonella parvula; 25 μmol/ml
  biofilm OD 630 nm divided by control (biofilm growth): 1.0384

Reference: US10307357B2, “Prebiotic oral care compositions containing an alkyl glycoside” (COLGATE-PALMOLIVE COMPANY, priority 2013, dated 2019)
